Experimental data from patent publication US20100278896A1, “SOLID COMPOSITIONS” (UCL BUSINESS PLC, priority 2007, published 2010).

Legend:
[1] = Tablet release in flow rig, pH 7.6 aqueous solution, 37° C., flow rate 2 μl/min, HPLC; format: physicochemical
Protocol: To obtain some indication of release kinetics, flow rigs of 50-200 μl capacity were used to model the bleb. An Ilomastat tablet (one tablet per rig) was placed into the flow chamber. Two tubes are connected to each rig: one was connected to a peristaltic pump to introduce an aqueous solution and the other tube allowed the removal of the solution out of the rig. Flow rates were used to model the flow of the aqueous solution into and out from the subconjunctival space to the scleral veins.
A range of flow rates was used in the rig experiments; however, in most of the experiments a flow rate of 2 μl/min was used to simulate the aqueous flow rate in the bleb. To further simulate the actual conditions in the eye, the aqueous solution used was maintained at pH 7.4-7.6 (as this is the pH of normal human aqueous humor) and the temperature was maintained at 37° C. The aqueous solution that was prepared using Oxoid® Phosphate Buffered Saline Tablets (one tablet for every 100 ml of de-ionized water). The PBS tablets were dissolved in de-ionized water and the pH was adjusted to 7.6. The aqueous solution was kept at 37° C.
The mobile phase was prepared as follows. […] When the pH was adjusted, de-ionized water was added to make the buffer volume of 1000 ml. Aliquots of each sample (0.1 ml) were transferred to HPLC vials that were then placed in the HPLC auto-sampler. […] Three injections (10 μl each) for each time point were evaluated. A computer was connected with the UV detector and with the use of the programme Chrom+, the peak area was analyzed to determine the amount of Ilomastat. […] The average of the three measurements was used to determine the amount of Ilomastat. […]
As indicated above, a tablet of solid 5-FU was fabricated using the same technique as described above. The dissolution rate of the tablet was then determined using the same rig as described above.
Each tablet was placed into the rig as described above and liquid samples analysed by HPLC and concentration of 5-FU was determined using the calibration curve. […]

[2] = tested on: Human Tenon's fibroblasts (HTF); details: cited from earlier work; for contraction of HTF populated collagen gels: dose-dependent, Daniels et al., 2003
[3] = Engalytcheff et al. 2004; cited from earlier work
[4] = tested on: Human Tenon's fibroblasts (HTF); assay: Contraction of HTF collagen I gels (in vitro contraction model); format: cell-based; details: for Contraction (%) of HTF collagen I gels: media without DMSO; for Contraction (%) of HTF collagen I gels, Average / Contraction (%) of HTF collagen I gels, Group 1 / Contraction (%) of HTF collagen I gels, Group 2 / Contraction (%) of HTF collagen I gels, Group 3 / Contraction (%) of HTF collagen I gels, Group 4: 2nd in vitro experiment
Protocol: Human Tenon's fibroblasts (HTF) were used for in vitro cultures. These cells are involved in subconjunctival scarring. The process of HTF isolation and proliferation was performed by using 0.5 cm^3 tissue explants from donor eyes obtained from Moorfields Hospital Eye Bank under the Tenets of the Declaration of Helsinki (1989). Explants of 0.5 cm^3 were kept for two hours in the bottom of 25 cm^3 flasks, with a coverslip placed over them. Each flask contained 5 ml of normal culture medium consisting of Dulbecco's modified Eagle's Medium (DMEM) with 10% fetal calf serum, 2 mM L-glutamine, 100 U/ml penicillin, […] gentamicin, 100 μg/ml streptomycin and 0.25 μg/ml amphotericin. The flasks were placed in incubators at 37° C. and 5% humidified CO2 in air. The culture medium was changed every 3 days and when they became confluent, usually within one month, they were passaged into new flasks for direct experimental use or were stored in liquid nitrogen.
After the HTFs reached confluence, the culture medium was aspirated and the monolayer was washed with 1 ml of trypsin 1× (Gibco) and the trypsin was quickly aspirated for about 15 seconds. Next, 2 ml of trypsin 1× (Gibco) were added to each flask and HTFs were detached from the flasks by incubation for 2 minutes at 37° C. and 5% humidified CO2 in air. After confirming by phase contrast microscopy using a Leica microscope with ×10 magnification that the cells had been detached from the bottom of the flask and that they had obtained a round shape, 2 ml of cell culture medium were added to neutralise the trypsinisation. The cell suspension was transferred to a 15 ml centrifuge tube (STARLAB GMBH) and was centrifuged at 1600 rpm for 5 minutes. The cell pellet was then resuspended in 10 ml of cell culture medium and was divided into 4 different 75 cm^3 flasks (1:4 expansion). In each flask 7.5 ml of cell culture medium were added. Flasks were placed in incubators at 37° C. and 5% humidified CO2 in air and the culture media was changed every three days. The time that was required from passage to passage in order to reach confluence was 1 week on average.
With a Neubauer plate, 6.2×10^4 HTF were counted and then were resuspended in 170 μl FBS in a 50 ml universal tube. Concentrated medium (160 μl) was added (stock solution consisting of 3.5 ml DMEM (×10 stock), 0.35 ml glutamine (2 mM stock) and 0.9 ml sodium bicarbonate (7.5% stock). 830 μl of First Link type I collagen solution collagen (stock 2.2 mg/ml in 0.6% acetic acid) were then added and the solution was mixed by swirling to avoid air bubbles. Sterile 1M NaOH (75-80 μl) was rapidly added to change the acidic pH of the solution. This caused the solution to turn a pink colour without reverting back to yellow. Quickly 150 μl collagen gel solution was cast into the wells of Mattek dishes making sure to cast the gel to the edges of the central groove using the pipette tip. Creation of air bubbles when ejecting the gel from the tip should be avoided. If air bubbles were formed, they were aspirated out. Usually, from a 1.2 ml gel suspension, 6 gels can easily be cast. Following this process, the wells of Makket dishes with the gels were placed in incubator to set for at least 10-15 min (up to 30 mins). Gels were detached from the edges of the central groove using yellow tips and excess unpolymerised solution was aspirated off. Two milliliters of cell culture medium were added and the dishes were placed in incubators at 37° C. and 5% humidified CO2 in air; the medium was replaced every 3 days.
Generally solid Ilomastat is diluted into DMSO before being added into the media, however in this experiment Ilomastat could be directly dissolved in the normal media without DMSO. […] The concentration of both samples was then confirmed by HPLC.
To compare with irradiated Ilomastat, experiments were conducted with three different treatment groups of collagen gels. Each treatment group had 3 collagen I gels with HTFs. […]

[5] = Comparison of irradiated and non-irradiated product (gamma radiation, HPLC)
[6] = Dissolution of Ilomastat in pH 7.6 aqueous solution without DMSO; format: physicochemical
Protocol: The curve was created as follows. […] The stock solution was then diluted in individual containers to give six other solutions with the following concentrations: 80 μM, 60 μM, 40 μM, 20 μM, 10 μM and 5 μM. Each solution was then evaluated three times by HPLC and the absorbance was determined.
A standard tablet punch and die and a press with an applied a pressure of five bars were used.

[7] = tested on: rabbit bleb after trabeculectomy; details: 17 injections in DMSO, 30 days, vs DMSO only control; cited from earlier work

With O=c1[nH]cc(F)c(=O)[nH]1 [5-FU] as the compound, how does the release period ([1]; excipient-free 5-FU tablets A, B and C averaged) read?
Its release period is 25 h.

What about the release kinetics ([1]; excipient-free tablets, FIGS. 9 to 13) of the same compound?
The release kinetics was “essentially linear release of drug over a period of many hours”.

Which “contraction of HTF populated collagen gels” value [2] does the source give for CNC(=O)[C@@H](NC(=O)[C@H](CC(C)C)NC(=O)[C@@H](S)CCN1C(=O)N(C)C(C)(C)C1=O)C(C)(C)C [BMS-275291] here?
The value was “inhibition of the contraction of the gels”.

Which “degradation caused from irradiation” value [3] does the source give for C[C@H](CS)C(=O)N1CCC[C@H]1C(=O)O [Captopril] here?
Its value is “not significant”.

With CNC(=O)[C@H](Cc1c[nH]c2ccccc12)NC(=O)[C@@H](CC(=O)NO)CC(C)C [IRRADIATED ILOMASTAT] as the compound, how does the “Contraction (%) of HTF collagen I gels” value ([4]; DAY 0) read?
Its value is 0%.

And the “Contraction (%) of HTF collagen I gels” value ([4]; DAY 1)?
Its value is 12.51%.

What about the “Contraction (%) of HTF collagen I gels” value ([4]; DAY 2) of the same compound?
Its value is 23.65%.

What about the “Contraction (%) of HTF collagen I gels” value ([4]; DAY 3) of the same compound?
The value was 28.44%.

What about the “Contraction (%) of HTF collagen I gels” value ([4]; DAY 4) of the same compound?
The value was 30.8%.

And the “Contraction (%) of HTF collagen I gels” value ([4]; DAY 5)?
The value was 32.23%.

What about the “Contraction (%) of HTF collagen I gels” value ([4]; DAY 6) of the same compound?
The value was 33.76%.

And the “Contraction (%) of HTF collagen I gels” value ([4]; DAY 7)?
Its value is 36.12%.

And the “trace products formed after irradiation, compared to total Ilomastat” value ([5]; 25 kGy gamma radiation, HPLC extra peak)?
Its value is 0.25%.

With CNC(=O)[C@H](Cc1c[nH]c2ccccc12)NC(=O)[C@@H](CC(=O)NO)CC(C)C [Ilomastat, N-[(2R)-2-(hydroxamidocarbonylmethyl)-4-methylpentanoyl]-L tryptophan methylamide] as the compound, how does the “time for which an MMP inhibitory concentration of 10 μM is maintained” value ([1]; solid dosage form of about 2 to 5 mg) read?
Its value is “at least 30 days”.

What about the “degradation caused by gamma radiation” value ([5]; 25 KGys dose) of the same compound?
Its value is “not significant”.

And the “concentrations inhibiting in vitro contraction in collagen I gels in a dose dependent manner” value ([2]; Daniels et al. 2003, WO 95/24921)?
Its value is 10 to 100 nM.

What about the “contraction of HTF populated collagen gels” value [2] of the same compound?
Its value is “inhibition of the contraction of the gels”.

And the “theoretical maximum dissolution in the aqueous solution” value [6]?
Its value is “about 100 μM”.

What about the bleb survival [7] of the same compound?
Its bleb survival is “prolong significantly the bleb survival”.

With CNC(=O)[C@H](Cc1c[nH]c2ccccc12)NC(=O)[C@@H](CC(=O)NO)CC(C)C [NON IRRADIATED] as the compound, how does the “Contraction (%) of HTF collagen I gels” value ([4]; DAY 0) read?
The value was 0%.

And the “Contraction (%) of HTF collagen I gels” value ([4]; DAY 1)?
The value was 11.96%.

What about the “Contraction (%) of HTF collagen I gels” value ([4]; DAY 2) of the same compound?
Its value is 27.19%.

What about the “Contraction (%) of HTF collagen I gels” value ([4]; DAY 3) of the same compound?
Its value is 32.97%.

What about the “Contraction (%) of HTF collagen I gels” value ([4]; DAY 4) of the same compound?
The value was 39.9%.

And the “Contraction (%) of HTF collagen I gels” value ([4]; DAY 5)?
The value was 41.66%.

And the “Contraction (%) of HTF collagen I gels” value ([4]; DAY 6)?
Its value is 42.03%.

What about the “Contraction (%) of HTF collagen I gels” value ([4]; DAY 7) of the same compound?
Its value is 43.19%.

Which results are given for CNC(=O)[C@H](Cc1c[nH]c2ccccc12)NC(=O)[C@@H](CC(=O)NO)CC(C)C [Non-Irradiated Ilomastat with DMSO]?
Contraction (%) of HTF collagen I gels, Average ([4]; Day 1): 19.35%; Contraction (%) of HTF collagen I gels, Group 1 ([4]; Day 1): 13.03%; Contraction (%) of HTF collagen I gels, Group 2 ([4]; Day 1): 19.45%; Contraction (%) of HTF collagen I gels, Group 3 ([4]; Day 1): 20.69%; Contraction (%) of HTF collagen I gels, Group 4 ([4]; Day 1): 24.23%; Contraction (%) of HTF collagen I gels, Average ([4]; Day 2): 22.63%; Contraction (%) of HTF collagen I gels, Group 1 ([4]; Day 2): 19.75%; Contraction (%) of HTF collagen I gels, Group 2 ([4]; Day 2): 22.77%; Contraction (%) of HTF collagen I gels, Group 3 ([4]; Day 2): 21.37%; Contraction (%) of HTF collagen I gels, Group 4 ([4]; Day 2): 26.63%; Contraction (%) of HTF collagen I gels, Average ([4]; Day 3): 23.325%; Contraction (%) of HTF collagen I gels, Group 1 ([4]; Day 3): 20.44%; Contraction (%) of HTF collagen I gels, Group 2 ([4]; Day 3): 24.14%; Contraction (%) of HTF collagen I gels, Group 3 ([4]; Day 3): 21.55%; Contraction (%) of HTF collagen I gels, Group 4 ([4]; Day 3): 27.17%; Contraction (%) of HTF collagen I gels, Average ([4]; Day 4): 24.14%; Contraction (%) of HTF collagen I gels, Group 1 ([4]; Day 4): 21.15%; Contraction (%) of HTF collagen I gels, Group 2 ([4]; Day 4): 25.19%; Contraction (%) of HTF collagen I gels, Group 3 ([4]; Day 4): 22.11%; Contraction (%) of HTF collagen I gels, Group 4 ([4]; Day 4): 28.11%; Contraction (%) of HTF collagen I gels, Average ([4]; Day 5): 25.375%; Contraction (%) of HTF collagen I gels, Group 1 ([4]; Day 5): 23.36%; Contraction (%) of HTF collagen I gels, Group 2 ([4]; Day 5): 25.33%; Contraction (%) of HTF collagen I gels, Group 3 ([4]; Day 5): 22.96%; Contraction (%) of HTF collagen I gels, Group 4 ([4]; Day 5): 29.85%; Contraction (%) of HTF collagen I gels, Average ([4]; Day 6): 27.6425%; Contraction (%) of HTF collagen I gels, Group 1 ([4]; Day 6): 24.42%; Contraction (%) of HTF collagen I gels, Group 2 ([4]; Day 6): 27.9%; Contraction (%) of HTF collagen I gels, Group 3 ([4]; Day 6): 24.9%; Contraction (%) of HTF collagen I gels, Group 4 ([4]; Day 6): 33.35%; Contraction (%) of HTF collagen I gels, Average ([4]; Day 7): 28.2525%; Contraction (%) of HTF collagen I gels, Group 1 ([4]; Day 7): 25.07%; Contraction (%) of HTF collagen I gels, Group 2 ([4]; Day 7): 29%; Contraction (%) of HTF collagen I gels, Group 3 ([4]; Day 7): 24.9%; Contraction (%) of HTF collagen I gels, Group 4 ([4]; Day 7): 34.04%
